Data on seven molecules can be found in patent EP3300716A1, “BIOFILM FORMATION INHIBITOR” (Riken Vitamin Co., Ltd., priority 2015, dated 2016).

Entries after “also recorded” stand apart in the source; their conditions may differ.

For assay [1], the system named is Candida albicans NBRC 1594. Put plainly: Evaluation of biofilm formation inhibitory effect (96-well microplate static culture, crystal violet staining, O.D. 600). The assay is classed as cell-based. Particulars: class by 50% inhibitory concentration, threshold 20 ppm. Here is the method: A potato dextrose agar (manufactured by Difco) was sterilized by autoclaving at 121°C for 15 minutes, added to a sterilized culture dish, and solidified to prepare an agar plate. A cryopreserved test fungus was spread on this agar plate and cultured at 30°C for 2 days. A yeast nitrogen base with 2% glucose (manufactured by Difco) was diluted 10-fold and sterilized by autoclaving at 121°C for 15 minutes. Twenty milliliters of this sterilized medium was placed into a conical flask with a baffle, and one loop of the agar-cultured test fungus was inoculated into the conical flask. Preculture was performed at 30°C with agitation at 150 rpm for 24 hours. Then, the fungal cells were collected by centrifugation (4700 rpm, 10 minutes, 20°C) . The collected fungal cells were washed with 20 mL of physiological saline and collected by centrifugation again (4700 rpm, 10 minutes, 20°C) . The collected fungal cells were resuspended in 10 mL of a Sabouraud-dextrose broth (liquid medium which contained 1.0% by mass of peptone and 4.0% by mass of glucose and was adjusted to a pH of 5.7 with 1 N hydrochloric acid, and hereinafter, it is called "SG medium"). This resuspension was diluted 20-fold with SG medium and used as a test fungal suspension. […] The test samples were separately dissolved in dimethyl sulfoxide (DMSO) to prepare test sample solutions. Two microliters of each test sample solution and 198 µL of the test fungal suspension were added to wells of a 96-well microplate (trade name: TC plate 96 well (Cell+); manufactured by Sarstedt) . The concentration of the test sample in the test sample solution was such that the concentration of the test sample in the combined total amount of the test sample solution and the test fungal suspension, i.e., the concentration of the test sample in the well would be 5 ppm, 25 ppm, 50 ppm or 100 ppm. Static culture was performed in the 96-well microplate containing the test sample solution and the test fungal suspension at 30°C for 2 days to allow biofilm formation to proceed in each well. […] After the static culture, the liquid in each well, including the test sample solution, the culture medium and the like, was removed, and the residue adherent to each well (cells, secretions, deposits, etc.) was regarded as a biofilm. To each well, 50 µL of a 0.01% by mass aqueous crystal violet solution (trade name, manufactured by Becton, Dickinson and Company) was added for staining of the biofilm. […] Then, 200 µL of ethanol was added to each well to elute the crystal violet bound to the biofilm, and the degree of formation of the biofilm adherent to the microplate was quantified. The quantification was performed by measuring the absorbance at 600 nm (O.D. 600) in each well with a microplate reader (model: SH-9000 Lab; manufactured by CORONA […] Co., Ltd.). The absorbance at 600 nm measured for the biofilm formed in the control well was used as the reference absorbance and assumed as 100% in terms of the degree of biofilm formation. The degree of biofilm formation for each test sample was calculated by comparison of the absorbance for the test sample with the reference absorbance. […] The graph of the logarithmic approximation curve was used to calculate the concentration of the test sample where the absorbance for the test sample is equal to 50% of the reference absorbance, that is, the degree of biofilm formation was 50% (hereinafter called "50% inhibitory concentration"). […]

Assay [2] concerns Candida albicans NBRC 1594. In words: Evaluation of fungistatic effect (streak culture on brain heart infusion agar plate, visual observation). The class given is cell-based. Particulars: for Evaluation of fungistatic effect: 1000 ppm-treated plot, agar plate, 30°C for 1 day; for fungicidal: conclusion drawn from fungal growth at 1000 ppm. Here is the method: Ten milliliters of a brain heart infusion agar (manufactured by Difco) was sterilized by autoclaving at 121°C for 15 minutes and then cooled down to 50°C. To this, 100 µL of a solution of the test sample in dimethyl sulfoxide (DMSO) was added, and the mixture was stirred until homogeneous. The homogeneous mixture was added to a sterilized culture dish to prepare an agar plate. The concentration of the test sample in the agar plate was 10 ppm, 100 ppm, 300 ppm or 1000 ppm. Next, one loop of a cryopreserved test fungus (Candida albicans NBRC 1594) was streaked on each agar plate and cultured at 30°C for 1 day. […] When no growth was observed along the streak line on the agar plate, the test sample was determined to be fungistatic at the indicated concentration.

For another assay, the system named is Candida biofilm. The following applies: Table 2 of Patent Literature 1; cited from earlier work.

Take `CCCCCCCCCCCC(=O)OCC(O)COC(=O)CCCCCCCCCCC` [Reference product 1, monoglyceryl dilaurate, reference compound]: in assay [1], the Evaluation result is “Poor in inhibition of biofilm formation (when the 50% inhibitory concentration of the test sample was more than 20 ppm, the test sample was regarded as poor in the inhibition of biofilm formation)”. Moreover, in assay [2], the “Evaluation of fungistatic effect” value is on record as “not fungistatic; also recorded: Fungal growth was observed in a 1000 ppm-treated plot. No fungistatic effect” and the fungicidal entry is recorded as “not fungicidal”.
Turning to `CC(=O)N1CCN(c2ccc(OCC3COC(Cn4ccnc4)(c4ccc(Cl)cc4Cl)O3)cc2)CC1` (stereo not drawn) [Reference product 2, ketoconazole, reference compound], the Evaluation entry in assay [1] is “Poor in inhibition of biofilm formation (when the 50% inhibitory concentration of the test sample was more than 20 ppm, the test sample was regarded as poor in the inhibition of biofilm formation)”.
Regarding “diglyceryl dicaprylate [Present invention product 2]”, in assay [1], the Evaluation entry is “Excellent in inhibition of biofilm formation (When the 50% inhibitory concentration of the test sample was 20 ppm or less, the test sample was regarded as excellent in the inhibition of biofilm formation)”. In assay [2], the “Evaluation of fungistatic effect” value is reported as “Fungal growth was observed in a 1000 ppm-treated plot. No fungistatic effect”; the fungicidal result was “none of the present invention products 1, 2, 3 and 4 were fungicidal”.
For the molecule “diglyceryl dicaprylate [Present invention product 3]”, the Evaluation entry in assay [1] is on record as “Excellent in inhibition of biofilm formation (When the 50% inhibitory concentration of the test sample was 20 ppm or less, the test sample was regarded as excellent in the inhibition of biofilm formation)”. Besides, in assay [2], the “Evaluation of fungistatic effect” value is “Fungal growth was observed in a 1000 ppm-treated plot. No fungistatic effect”; the fungicidal result was “none of the present invention products 1, 2, 3 and 4 were fungicidal”.
On to diglyceryl monocaprylate, for which the “effective against biofilm formation” value in the assay on Candida biofilm is recorded as “poorly effective against biofilm formation”.
With glyceryl dilaurate, the “effective against biofilm formation” value in the assay with Candida biofilm is on record as “less effective against biofilm formation than glyceryl monolaurate”.
With “monoglyceryl dicaprylate [Present invention product 1]”, the Evaluation result in assay [1] is “Excellent in inhibition of biofilm formation (When the 50% inhibitory concentration of the test sample was 20 ppm or less, the test sample was regarded as excellent in the inhibition of biofilm formation)”. Besides, in assay [2], the “Evaluation of fungistatic effect” value is “Fungal growth was observed in a 1000 ppm-treated plot. No fungistatic effect”; the fungicidal result is “none of the present invention products 1, 2, 3 and 4 were fungicidal”.
